Values quoted from earlier work as cited in patent US10888120B2, “Non-tobacco nicotine containing article” (Philip Morris Products S.A., priority 2013, dated 2021).

Settings: "experienced" ENDS users (using ENDS for about 1 year)

In the case of `CN1CCCC1c1cccnc1` (stereo not shown) [nicotine], the “plasma nicotine concentration (Cmax)” value is listed as 10.3 ng/mL.
